Laboratory results taken from ChEMBL document CHEMBL3994622, “Design and synthesis of new RAF kinase-inhibiting antiproliferative quinoline derivatives. Part 2: Diarylurea derivatives” (Eur J Med Chem, 2017).

What was measured:
Format in all cases: functional
UACC-257 = assay: Growth inhibition of human UACC257 cells assessed as cell growth at 10 uM incubated for 48 hrs by sulforhodamine B assay relative to control; conditions: UACC-257, 48 h, read-out: Activity
SF-268 = assay: Growth inhibition of human SF268 cells assessed as cell growth at 10 uM incubated for 48 hrs by sulforhodamine B assay relative to control; conditions: SF-268, 48 h, read-out: Activity
Malme-3M = assay: Growth inhibition of human MALME-3M cells assessed as cell growth at 10 uM incubated for 48 hrs by sulforhodamine B assay relative to control; conditions: read-out: Activity
KM12 = assay: Growth inhibition of human KM12 cells assessed as cell growth at 10 uM incubated for 48 hrs by sulforhodamine B assay relative to control; conditions: KM12, 48 h, read-out: Activity
NCI-H460 = assay: Growth inhibition of human NCI-H460 cells assessed as cell growth at 10 uM incubated for 48 hrs by sulforhodamine B assay relative to control; conditions: NCI-H460, 48 h, read-out: Activity
U-251 = assay: Growth inhibition of human U251 cells assessed as cell growth at 10 uM incubated for 48 hrs by sulforhodamine B assay relative to control; conditions: U-251, 48 h, read-out: Activity
COLO 205 = assay: Growth inhibition of human COLO205 cells assessed as cell growth at 10 uM incubated for 48 hrs by sulforhodamine B assay relative to control; conditions: COLO 205, 48 h, read-out: Activity
NCI/ADR-RES = assay: Growth inhibition of human NCI/ADR-RES cells assessed as cell growth at 10 uM incubated for 48 hrs by sulforhodamine B assay relative to control; conditions: read-out: Activity
MDA-MB-435 = assay: Growth inhibition of human MDA-MB-435 cells assessed as cell growth at 10 uM incubated for 48 hrs by sulforhodamine B assay relative to control; conditions: MDA-MB-435, 48 h, read-out: Activity
MDA-MB-468 = assay: Growth inhibition of human MDA-MB-468 cells assessed as cell growth at 10 uM incubated for 48 hrs by sulforhodamine B assay relative to control; conditions: MDA-MB-468, 48 h, read-out: Activity
OVCAR-4 = assay: Growth inhibition of human OVCAR4 cells assessed as cell growth at 10 uM incubated for 48 hrs by sulforhodamine B assay relative to control; conditions: OVCAR-4, 48 h, read-out: Activity
A549 = assay: Growth inhibition of human A549/ATCC cells assessed as cell growth at 10 uM incubated for 48 hrs by sulforhodamine B assay relative to control; conditions: A549, 48 h, read-out: Activity
RPMI-8226 = assay: Growth inhibition of human RPMI8226 cells assessed as cell growth at 10 uM incubated for 48 hrs by sulforhodamine B assay relative to control; conditions: RPMI-8226, 48 h, read-out: Activity
MDA-MB-231 = assay: Growth inhibition of human MDA-MB-231 cells assessed as cell growth at 10 uM incubated for 48 hrs by sulforhodamine B assay relative to control; conditions: MDA-MB-231, 48 h, read-out: Activity
SK-MEL-5 = assay: Growth inhibition of human SK-MEL-5 cells assessed as cell growth at 10 uM incubated for 48 hrs by sulforhodamine B assay relative to control; conditions: SK-MEL-5, 48 h, read-out: Activity
MOLT-4 = assay: Growth inhibition of human MOLT4 cells assessed as cell growth at 10 uM incubated for 48 hrs by sulforhodamine B assay relative to control; conditions: MOLT-4, 48 h, read-out: Activity
NCI-H23 = assay: Growth inhibition of human NCI-H23 cells assessed as cell growth at 10 uM incubated for 48 hrs by sulforhodamine B assay relative to control; conditions: NCI-H23, 48 h, read-out: Activity
SF-295 = assay: Growth inhibition of human SF295 cells assessed as cell growth at 10 uM incubated for 48 hrs by sulforhodamine B assay relative to control; conditions: SF-295, 48 h, read-out: Activity
HCC 2998 = assay: Growth inhibition of human HCC2998 cells assessed as cell growth at 10 uM incubated for 48 hrs by sulforhodamine B assay relative to control; conditions: HCC 2998, 48 h, read-out: Activity
T47D = assay: Growth inhibition of human T47D cells assessed as cell growth at 10 uM incubated for 48 hrs by sulforhodamine B assay relative to control; conditions: read-out: Activity
NCI-H522 = assay: Growth inhibition of human NCI-H522 cells assessed as cell growth at 10 uM incubated for 48 hrs by sulforhodamine B assay relative to control; conditions: NCI-H522, 48 h, read-out: Activity
HL-60(TB) = assay: Growth inhibition of human HL-60(TB) cells assessed as cell growth at 10 uM incubated for 48 hrs by sulforhodamine B assay relative to control; conditions: HL-60, 48 h, read-out: Activity
RXF 393 = assay: Growth inhibition of human RXF393 cells assessed as cell growth at 10 uM incubated for 48 hrs by sulforhodamine B assay relative to control; conditions: RXF 393, 48 h, read-out: Activity
BT-549 = assay: Growth inhibition of human BT549 cells assessed as cell growth at 10 uM incubated for 48 hrs by sulforhodamine B assay relative to control; conditions: BT-549, 48 h, read-out: Activity
HOP-62 = assay: Growth inhibition of human HOP62 cells assessed as cell growth at 10 uM incubated for 48 hrs by sulforhodamine B assay relative to control; conditions: HOP-62, 48 h, read-out: Activity
HCT-15 = assay: Growth inhibition of human HCT15 cells assessed as cell growth at 10 uM incubated for 48 hrs by sulforhodamine B assay relative to control; conditions: HCT-15, 48 h, read-out: Activity
CAKI-1 = assay: Growth inhibition of human Caki1 cells assessed as cell growth at 10 uM incubated for 48 hrs by sulforhodamine B assay relative to control; conditions: CAKI-1, 48 h, read-out: Activity
HCT-116 = assay: Growth inhibition of human HCT116 cells assessed as cell growth at 10 uM incubated for 48 hrs by sulforhodamine B assay relative to control; conditions: HCT-116, 48 h, read-out: Activity
A498 = assay: Growth inhibition of human A498 cells assessed as cell growth at 10 uM incubated for 48 hrs by sulforhodamine B assay relative to control; conditions: A498, 48 h, read-out: Activity
OVCAR-3 = assay: Growth inhibition of human OVCAR3 cells assessed as cell growth at 10 uM incubated for 48 hrs by sulforhodamine B assay relative to control; conditions: OVCAR-3, 48 h, read-out: Activity
SNB-75 = assay: Growth inhibition of human SNB75 cells assessed as cell growth at 10 uM incubated for 48 hrs by sulforhodamine B assay relative to control; conditions: SNB-75, 48 h, read-out: Activity
UACC-62 = assay: Growth inhibition of human UACC62 cells assessed as cell growth at 10 uM incubated for 48 hrs by sulforhodamine B assay relative to control; conditions: UACC-62, 48 h, read-out: Activity

With `COc1cc2cc(Oc3ccc(NC(=O)Nc4ccc(C(F)(F)F)cc4)cc3)c(C)nc2cc1OC` the growth at 10 µM (UACC-257) was 66.5%, the growth at 10 µM (SF-268) was 79.3% and the growth at 10 µM (Malme-3M) was 82.9%. For the same compound, the growth at 10 µM (KM12) was 64.4%, the growth at 10 µM (NCI-H460) was 42.8% and the growth at 10 µM (U-251) was 15%. The growth at 10 µM (COLO 205) was 40.4%, the growth at 10 µM (NCI/ADR-RES) was 64.1% and the growth at 10 µM (MDA-MB-435) was 80.3%. For the same compound, the growth at 10 µM (MDA-MB-468) was 40.1%, the growth at 10 µM (OVCAR-4) was 49% and the growth at 10 µM (A549) was 32.4%. It also gave a growth at 10 µM (RPMI-8226) of 52.7%, a growth at 10 µM (MDA-MB-231) of 80.9% and a growth at 10 µM (SK-MEL-5) of 47.4%. It also gave a growth at 10 µM (MOLT-4) of 61.9%, a growth at 10 µM (NCI-H23) of 79.3% and a growth at 10 µM (SF-295) of 56%. It also gave a growth at 10 µM (HCC 2998) of 94.8%, a growth at 10 µM (T47D) of 57.5% and a growth at 10 µM (NCI-H522) of 63.2%. It also gave a growth at 10 µM (HL-60(TB)) of 75.2%, a growth at 10 µM (RXF 393) of 6.29% and a growth at 10 µM (BT-549) of 113%. For the same compound, the growth at 10 µM (HOP-62) was 18.8%, the growth at 10 µM (HCT-15) was 75.4% and the growth at 10 µM (CAKI-1) was 70.4%. It also gave a growth at 10 µM (HCT-116) of 47.2%, a growth at 10 µM (A498) of 90.5% and a growth at 10 µM (OVCAR-3) of 67%. It also gave a growth at 10 µM (SNB-75) of 41% and a growth at 10 µM (UACC-62) of 69.2%.
